Experimental data taken from ChEMBL document CHEMBL2406969, “Gombamide A, a cyclic thiopeptide from the sponge Clathria gombawuiensis” (2013).
Numbered stars: 1 amine (or outer) side, 2 acyl side, 3 side chain; on linkers, the order of the positions; unused ones are H or OH. Bridge positions count the residues as written; N and C are the ends. Square brackets hold non-standard residues; d marks the D form. Peptide text beside a SMILES is read from it. * marks the point of attachment. X1 = O=C([C@@H]1CCCN1C[C@@H]1CCCN1[*:1])[*:2]; pGlu = O=C1CC[C@@H](C(=O)O)N1; X2 = Oc1ccc(/C=C/N*)cc1

Tests used:
[1] = molecular target: Sodium/potassium-transporting ATPase (Homo sapiens) (UniProt P05023+P14415+P05026+P50993+P54709+P13637+Q13733+P54710)
Description: Inhibition of Na+/K+ ATPase (unknown origin)

[2] = system: A549; assay: Cytotoxicity against human A549 cells; type: functional; settings: read-out: LC50 (the source's name)
[3] = system: K562; assay: Cytotoxicity against human K562 cells; type: functional; settings: read-out: LC50 (the source's name)

## O=C1CC[C@@H](C(=O)N[C@H]2CSSC[C@@H](C(=O)N/C=C/c3ccc(O)cc3)NC(=O)[C@H](Cc3ccccc3)NC(=O)[C@@H]3CCCN3C[C@@H]3CCCN3C2=O)N1 ([pGlu]C[X1]FC-X2; disulfide 2-5)
[1]
  LC50: 17.8 µM
[2]
  CC50: 7.1 µM
[3]
  CC50: 6.9 µM

## COc1cccc2c1C(=O)c1c(O)c3c(c(O)c1C2=O)C[C@@](O)(C(=O)CO)C[C@@H]3O[C@H]1C[C@H](N)[C@H](O)[C@H](C)O1 [DOXORUBICIN]
[2]
  CC50: 0.5 µM
[3]
  CC50: 0.7 µM
